Test results taken from article PMC5626944 (Frontiers in Pharmacology, 2017).
Where two headings read alike, the source gives them in different places.

What was measured:
α4β2 (α5KO) nAChRs = target: T1, α4β2 (α5KO) nAChRs (Mus musculus, UniProt O70174+Q9ERK7); experiment: 86Rb+ efflux from α5KO thalamic and cortical synaptosomes; assay type: biochemical
T1 construct: from tissue; host or cells: thalamic and cortical synaptosomes of α5KO mice
Experimental: Regions of interest were dissected from fresh mouse brains and homogenized in ice-cold isotonic sucrose (0.32 M), buffered with HEPES (5 mM, pH 7.5). The suspension was centrifuged at 12,000 × g for 20 min.

[1] = Pharmacokinetics in mice, plasma and brain by LC-MS/MS; assay type: in vivo, mouse; settings: for half-life / Tmax: both sexes, mouse, plasma; for Tmax: read-out: Time of maximum plasma concentration
Experimental: Pharmacokinetic experiments with TC299423 were performed by Absorption Systems LP (Exton, PA, United States). […] Blood samples were taken and the brains were harvested 5 min, 15 min, 30 min, 1 h, 3 h, and 6 h after drug administration. […] Blood and brain samples were obtained at the same time points as above. Untreated plasma and blood samples were collected from three mice in the same cohort as the study animals for pre-dose (time 0) samples. Blood samples were collected by cardiac puncture and stored in tubes containing sodium heparin before being processed. Plasma was prepared and frozen for analysis. Brains were harvested, rinsed, patted dry, weighed, and frozen.
Matched matrix was used for preparation of calibration standards. Dosing solutions were normalized in matched matrix and analyzed in triplicate in the same analytical batch as the incurred samples.

[2] = 0.2 mg/kg ip; for [TC299423] in assay: brain; for Blood measurements: [TC299423]: serum
Experimental: Uninjected mice served as controls (n = 3 for each group). Trunk blood was collected into heparinized 1.5 mL polyethylene tubes. The tubes were centrifuged and the serum was collected. […] The cerebral cortex was dissected, placed in 1 mL of cold water, homogenized, and diluted to 3 mL with cold water. Epibatidine saturation curves were constructed for the cortical samples using eight concentrations of [^125I]epibatidine measured in triplicate (6, 12, 25, 50, 100, 200, 400, and 800 pM). The final assay volume was […] 50 μL of homogenate was added to each sample. Blanks included 100 μM nicotine. Samples were incubated at room temperature overnight. The samples were filtered, washed and counted. Inhibition of [^125I]epibatidine (325 pM) binding was measured by adding 1, 2, 5, 10, or 20 μL of serum to samples. The washed, particulate fraction from C57BL/6 cortex was the source of the binding sites.

[3] = In vitro metabolism in microsomes; assay type: in vitro ADME; settings: human microsomes
Adrenergic, Alpha 1A = test system: T2, Adrenergic, Alpha 1A; experiment: NovaScreen competition binding; settings: 1 µM
T2 construct: PerkinElmer – Caliper Life Sciences (NovaScreen service)

Adrenergic, Alpha 2C (h) = test system: T3, Adrenergic, Alpha 2C (h); experiment: NovaScreen competition binding; design: species or system human; settings: 1 µM
T3 construct: PerkinElmer – Caliper Life Sciences (NovaScreen service)

GABA A, Agonist Site = experiment: NovaScreen competition binding; settings: 1 µM
GABA-B = test system: T4, GABA-B; experiment: NovaScreen competition binding; settings: 1 µM
T4 construct: PerkinElmer – Caliper Life Sciences (NovaScreen)

[4] = test system: Glutamate, NMDA Agonist Site (Ionotropic); experiment: NovaScreen competition binding; settings: 1 µM
[5] = test system: Glutamate, NMDA, Phencyclidine Site (Ionotropic); experiment: NovaScreen competition binding; settings: 1 µM
[6] = test system: Glycine, Strychnine-sensitive; experiment: NovaScreen competition binding; settings: 1 µM
Histamine, H2 = test system: T5, Histamine, H2; experiment: NovaScreen competition binding; settings: 1 µM
T5 construct: PerkinElmer – Caliper Life Sciences (NovaScreen)

Muscarinic, M2 (h) = experiment: NovaScreen competition binding; design: species or system human; settings: 1 µM
Serotonin, 5HT4 = experiment: NovaScreen competition binding; settings: 1 µM
Serotonin, 5HT6 (h) = experiment: NovaScreen competition binding; design: species or system human; settings: 1 µM
[7] = test system: T6, Leukotriene, LTD4 (CysLT1); experiment: NovaScreen competition binding; settings: 1 µM
T6 construct: PerkinElmer – Caliper Life Sciences (NovaScreen service)

Esterase, Acetylcholine = experiment: NovaScreen enzyme assay; assay type: biochemical; settings: 1 µM
Kinase, Protein, PKA (h) = test system: T7, Kinase, Protein, PKA (h); experiment: NovaScreen enzyme assay; assay type: biochemical, human; settings: 1 µM
T7 construct: PerkinElmer – Caliper Life Sciences (NovaScreen service)

α6β2* nAChRs = α6β2* nAChRs (Mus musculus, UniProt Q9ERK7+Q9R0W9); experiment: [125I]epibatidine binding, striatal membranes from α4KO mice; design: from tissue; host or cells: striatal membranes from α4KO mice
Chain of α6β2* nAChRs (Q9ERK7 26-501): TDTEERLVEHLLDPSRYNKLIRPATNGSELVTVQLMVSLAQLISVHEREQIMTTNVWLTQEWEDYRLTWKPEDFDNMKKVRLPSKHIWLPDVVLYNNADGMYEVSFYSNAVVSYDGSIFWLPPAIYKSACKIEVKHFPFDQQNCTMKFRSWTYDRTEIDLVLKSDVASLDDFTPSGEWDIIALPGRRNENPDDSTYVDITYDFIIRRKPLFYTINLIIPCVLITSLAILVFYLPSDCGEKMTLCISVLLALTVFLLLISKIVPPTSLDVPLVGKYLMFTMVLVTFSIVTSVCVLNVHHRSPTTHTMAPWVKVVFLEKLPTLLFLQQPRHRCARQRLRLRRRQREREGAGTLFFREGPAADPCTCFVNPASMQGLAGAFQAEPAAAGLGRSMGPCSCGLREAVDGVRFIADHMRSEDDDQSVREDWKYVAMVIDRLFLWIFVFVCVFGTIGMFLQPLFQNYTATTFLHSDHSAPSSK
Chain of α6β2* nAChRs (Q9R0W9 31-494): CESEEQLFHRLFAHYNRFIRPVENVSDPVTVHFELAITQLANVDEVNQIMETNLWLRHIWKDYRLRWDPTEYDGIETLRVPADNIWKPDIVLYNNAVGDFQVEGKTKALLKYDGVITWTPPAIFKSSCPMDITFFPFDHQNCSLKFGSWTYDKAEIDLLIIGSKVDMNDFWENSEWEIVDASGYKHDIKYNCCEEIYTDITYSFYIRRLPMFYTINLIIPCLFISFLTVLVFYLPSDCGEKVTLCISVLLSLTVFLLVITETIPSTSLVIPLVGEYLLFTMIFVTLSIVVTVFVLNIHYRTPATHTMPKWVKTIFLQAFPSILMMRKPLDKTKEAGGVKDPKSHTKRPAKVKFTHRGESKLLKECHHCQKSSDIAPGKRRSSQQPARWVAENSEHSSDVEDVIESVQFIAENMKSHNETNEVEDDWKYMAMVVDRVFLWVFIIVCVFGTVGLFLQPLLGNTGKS
Experimental: Brain membrane preparations were stored as pellets under buffer at -70°C or used immediately.

T1 sequence (O70174 31-629): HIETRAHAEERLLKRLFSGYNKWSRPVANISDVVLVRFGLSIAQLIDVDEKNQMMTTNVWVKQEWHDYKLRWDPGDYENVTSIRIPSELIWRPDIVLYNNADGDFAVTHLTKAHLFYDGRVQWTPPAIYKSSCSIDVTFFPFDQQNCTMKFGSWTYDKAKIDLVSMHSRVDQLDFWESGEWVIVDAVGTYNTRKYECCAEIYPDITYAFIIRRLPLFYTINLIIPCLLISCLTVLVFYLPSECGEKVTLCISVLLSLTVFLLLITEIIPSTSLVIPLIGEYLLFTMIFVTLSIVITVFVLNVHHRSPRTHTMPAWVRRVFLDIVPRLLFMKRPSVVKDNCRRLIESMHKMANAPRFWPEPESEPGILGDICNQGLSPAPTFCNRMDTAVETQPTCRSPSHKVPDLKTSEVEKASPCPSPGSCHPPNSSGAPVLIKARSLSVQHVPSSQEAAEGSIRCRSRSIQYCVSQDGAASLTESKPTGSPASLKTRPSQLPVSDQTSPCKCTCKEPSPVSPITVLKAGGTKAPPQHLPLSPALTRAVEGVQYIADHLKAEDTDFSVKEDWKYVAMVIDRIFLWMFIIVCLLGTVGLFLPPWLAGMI
T1 sequence (Q9ERK7 26-501): as the sequence (Q9ERK7 26-501) above

Compound: C1=C(/c2cncnc2)CCCNCC/1 [TC299423, (E)-5-(pyrimidin-5-yl)-1,2,3,4,7,8-hexahydroazocine]
- 86Rb+ efflux Efficacy (α4β2 (α5KO) nAChRs; Cortex): 169 ± 20%
- EC50 (α4β2 (α5KO) nAChRs; Cortex): 2400 ± 700 nM
- 86Rb+ efflux Efficacy (α4β2 (α5KO) nAChRs; Thalamus): 166 ± 32%
- EC50 (α4β2 (α5KO) nAChRs; Thalamus): 1600 ± 500 nM
- Maximum brain-tissue concentration ([1]; 0.3 mg/kg ip): 22 ± 0.43 ng/g
- Maximum plasma concentration ([1]; 0.3 mg/kg ip): 49 ± 18 ng/mL
- Time of maximum brain-tissue concentration ([1]; 0.3 mg/kg ip): 0.5 h
- Maximum brain-tissue concentration ([1]; 0.3 mg/kg ip, converted): 0.12 µM
- Maximum plasma concentration ([1]; 0.3 mg/kg ip, converted): 0.26 µM
- Maximum brain-tissue concentration ([1]; 1 mg/kg oral): 42 ± 17 ng/g
- Maximum plasma concentration ([1]; 1 mg/kg oral): 38 ± 10 ng/mL
- Time of maximum brain-tissue concentration ([1]; 1 mg/kg oral): 0.25 h
- Maximum brain-tissue concentration ([1]; 1 mg/kg oral, converted): 0.22 µM
- Maximum plasma concentration ([1]; 1 mg/kg oral, converted): 0.20 µM
- half-life ([1]; 0.3 mg/kg ip): 10.2 min
- Tmax ([1]; 0.3 mg/kg ip): 4.8 min
- half-life ([1]; 1 mg/kg oral): 67.2 min
- Tmax ([1]; 1 mg/kg oral): 15 min
- Time remaining in the brain ([1]; following ip injection or oral administration): at least 60 min
- Duration of brain penetration and availability to nAChRs [2]: ≥ 20 min
- [TC299423] in brain ([2]; 5 min): 45 ± 25 pmol/mg
- [TC299423] in brain ([2]; 10 min): 88 ± 18 pmol/mg
- [TC299423] in brain ([2]; 20 min): 73 ± 4.0 pmol/mg
- [TC299423] in assay ([2]; 5 min): 2.2 ± 1.1 nM
- [TC299423] in assay ([2]; 10 min): 4.4 ± 0.9 nM
- [TC299423] in assay ([2]; 20 min): 3.7 ± 0.2 nM
- Blood measurements: [TC299423] ([2]; 5 min): 250 ± 50 nM
- Blood measurements: [TC299423] ([2]; 10 min): 370 ± 70 nM
- Blood measurements: [TC299423] ([2]; 20 min): 120 ± 30 nM
- Half-life compared to varenicline [3]: ~7 fold
- half-life [3]: 285 min
- microsomal CLint ([3]; read-out: Clearance): 5 µL/min/mg
- Hit (Adrenergic, Alpha 1A): FALSE
- Inhibition (Adrenergic, Alpha 1A; [3H]-7-MeOxy-Prazosin): -0.05%
- Hit (Adrenergic, Alpha 2C (h)): FALSE
- Inhibition (Adrenergic, Alpha 2C (h); [3H]MK-912): 6.28%
- Hit (GABA A, Agonist Site): FALSE
- Inhibition (GABA A, Agonist Site; [3H]GABA): -2.66%
- Hit (GABA-B): FALSE
- Inhibition (GABA-B; [3H]CGP 54626A): -2.43%
- Hit [4]: FALSE
- Inhibition ([4]; [3H]CGP 39653): 5.51%
- Hit [5]: FALSE
- Inhibition ([5]; [3H]TCP): 7.71%
- Hit [6]: FALSE
- Inhibition ([6]; [3H]Strychnine): -7.63%
- Hit (Histamine, H2): FALSE
- Inhibition (Histamine, H2; [125I]-Aminopotentidine): 6.50%
- Hit (Muscarinic, M2 (h)): FALSE
- Inhibition (Muscarinic, M2 (h); [3H]Scopolamine, N-Methyl): -3.18%
- Hit (Serotonin, 5HT4): FALSE
- Inhibition (Serotonin, 5HT4; [3H]GR 113808): -16.64%
- Hit (Serotonin, 5HT6 (h)): FALSE
- Inhibition (Serotonin, 5HT6 (h); [3H]-LSD): 8.87%
- Hit [7]: FALSE
- Inhibition ([7]; [3H]LTD4): -8.26%
- Hit (Esterase, Acetylcholine): FALSE
- Inhibition (Esterase, Acetylcholine; substrate Acetylthiocholine): 21.55%
- Hit (Kinase, Protein, PKA (h)): FALSE
- Inhibition (Kinase, Protein, PKA (h); substrate Fluorescein-labeled peptide): -5.00%
- Ki (α6β2* nAChRs; α4KO striatal membranes): 1.4 ± 0.6 nM
- Difference between Ki ([125I]epibatidine) and EC50 ([3H]dopamine release) (α6β2* nAChRs; α6β2* nAChRs): ~20 fold
